Laboratory results taken from ChEMBL document CHEMBL1139041, “Design and synthesis of 2'-anilino-4,4'-bipyridines as selective inhibitors of c-Jun N-terminal kinase-3” (Bioorg Med Chem Lett, 2006).
Converted amounts (≈) assume the structure as drawn.

Key:
[1] = Solubility in phosphate buffer at pH 7.4; assay type: physicochemical
[2] = Intrinsic clearance in rat microsomes; assay type: ADME, Microsome; settings: liver microsomes
[3] = Permeability across Caco-2 cell membrane; assay type: ADME, cell-based; settings: human, read-out: permeability
[4] = Bioavailability in rat; assay type: ADME, organism-based; settings: in vivo
[5] = Clearance in rat; assay type: ADME, organism-based; settings: in vivo
[6] = Half life in po dosed rat; assay type: ADME, organism-based; settings: in vivo

Structure (SMILES) | solubility [1] [µM] | also measured
O=C(Nc1cc(-c2ccnc(Nc3ccccc3)c2)ccn1)C1CCOC1 (configuration not stated) | – | microsomal CLint [2]: 12 µL/min/mg; Papp [3]: 29.9 ×10⁻⁶ cm/s; bioavailability [4]: 16%; clearance [5]: 30 mL/min/kg; half-life [6]: 4.7 h
Fc1ccc(Nc2cc(-c3ccnc(Nc4ccc(F)cc4)c3)ccn2)cc1 | < 0.1 | –
O=C(Nc1cc(-c2ccnc(Nc3ccccc3)c2)ccn1)c1cccnc1 | 17 (≈ 6.25 µg/mL) | –
O=C(Nc1cc(-c2ccnc(Nc3ccccc3)c2)ccn1)c1ccco1 | 4 (≈ 1.43 µg/mL) | –

Further lines, with some results ahead:

solubility [1] [µM] | Structure (SMILES) | also measured
8 (≈ 3.22 µg/mL) | COC1CCC(C(=O)Nc2cc(-c3ccnc(Nc4ccccc4)c3)ccn2)CC1 (configuration not stated) | –
94 (≈ 39.1 µg/mL) | CC(=O)N1CCC(C(=O)Nc2cc(-c3ccnc(Nc4ccccc4)c3)ccn2)CC1 | –
40 (≈ 15.3 µg/mL) | Cc1cnc(C(=O)Nc2cc(-c3ccnc(Nc4ccccc4)c3)ccn2)cn1 | –
20 (≈ 6.97 µg/mL) | COCCC(=O)Nc1cc(-c2ccnc(Nc3ccccc3)c2)ccn1 | –
